Measured values: patent US10232013B2, “Use of an antimicrobial peptide TP4 in treating a cancer” (Academia Sinica, priority 2016, dated 2019)
Marks after values point to notes of the source that are not given here. Where no end group is shown, it is not given here.

How the values were obtained:
MB231 (MDA-MB231) cells = experiment: MTS cell viability assay, MB231; assay type: cell-based, human; settings: mean±SD
Experimental: (§1) Cell-lines used in this study were purchased from the Bioresource Collection and Research Center (BCRC) in and the cells were cultured by the standard cell culture procedures and conditions provided by the BCRC. MB231 (BCRC 60425), MB453 (BCRC 60429), and HDF cells were cultured as previously described by Ting et al. MCF7 […] cells were maintained in α-MEM medium (ThermoFisher Scientific) supplemented with 2 mM L-glutamine, 10% FBS, 0.1 mM non-essential amino acids, 1 mM sodium pyruvate, and antibiotics (100 U mL^−1 penicillin G and […] streptomycin). M10 (BCRC 60197) cells were maintained in α-MEM medium (ThermoFisher Scientific) supplemented with 10% FBS and antibiotics. With the exception of MB231 and MB453, all cells were cultured at 37° C. with 5% CO2. For the cell viability and transfection assay, 1×10^4 cells [5×10^3 M10 cells were seeded and cultured for 48 h to allow the cells sufficient time for attachment] were seeded into the wells of a 96-well plate and cultured overnight. For the transfection assays, cells were transfected with 0.1-0.4 μg FOSB/FOSAB expression plasmid (Origene Technology Inc.) and cell viability was determined after 72 h. The transfection efficiencies (number of cells expressing eGFP/all cells) of the MB231 transfection assays were determined by observing ten randomly selected fields (from three independent transfections) of control GFP plasmid transfections under an inverted microscope (Olympus, IX71) coupled to a digital camera (Olympus DP80), using an […] (LCPlanFI 20×/0.40 Ph1). CellSens standard software (Olympus) was used for image acquisition. During the drug treatment assay, inhibitors (PD98059, BAPTA-AM, and AlP II) were added 30 min prior to TP4, and cell viability was determined at indicated time-points. Transfection was performed using LipofectAMINE™ 3000 (ThermoFisher Scientific), according to the manufacturer's recommendations. Knock-down cells were generated by transducing MB231 cells with pre-synthesized FOSB (or control) shRNA lentiviral particles (Santa Cruz Biotechnology), and selecting puromycin-resistant cells in accordance with the manufacturer's standard protocol. MB231 or M10 cells stably expressing eGFP or mOrange2 were generated through transfection with peGFP-puromycin or pmOrange2-C1 plasmid, followed by puromycin (5 μg mL^−1) or G418 (500 μg mL^−1) selection as described above.
(§2) Cell viability was quantitatively analyzed using the CellTiter-Glo® Luminescent Cell Viability Assay kit (ATP assay) and CellTiter 96® AQueous Non-Radioactive Cell Proliferation Assay kit (MTS assay) (Promega) in accordance with the manufacturer's protocol. For MTS assay, 1×10^4 cells were seeded into the wells of a 96-well plate and cultured overnight [5×10^3 M10 cells were seeded and cultured for 48 h to enable sufficient well attachment]. Cells were subsequently treated with different doses of TP4 (2.5-20 μg mL^−1) and harvested at the indicated time-points (3-24 h). Reaction mixtures (20 μL: MTS+PMS, using a ratio 20:1) were directly added to the cells, and the plates were incubated for 3 h at 37° C. Absorbance at 490 nm is directly proportional to the number of living cells in culture and was measured using a photometer (SpectraMax® i3, Molecular Devices). ATP assay was performed as previously described by Ting et al. Lactate dehydrogenase (LDH) assays were performed by quantitatively measuring cell lysis with a Cytotoxicity Detection Kit^PLUS (LDH) (Roche) in accordance with the manufacturer's protocol. The LDH standard was purchased from Cayman Chemical. Briefly, 1×10^4 cells were seeded into the wells of a 96-well plate and cultured overnight. Culture media were replaced with fresh medium containing 1% FBS and cells were subsequently treated with different doses of TP4 (2.5-20 μg mL^−1). Supernatants were harvested at 3 h. […]

[1] = MTS cell viability assay, HDF; assay type: cell-based; settings: human, HDF dermal fibroblasts, mean±SD, read-out: Cellular toxicity (cell viability), MTS assay
Experimental: as §1, §2

FIHHIIGGLFSAGKAIHRLIRRRRR [TP4, tilapia piscidin 4]
Cellular toxicity (cell viability), MTS assay (MB231 (MDA-MB231) cells; MB231, TP4 2.5 μg/mL, 3 h): 95.34 ± 5.56^a
Cellular toxicity (cell viability), MTS assay (MB231 (MDA-MB231) cells; MB231, TP4 2.5 μg/mL, 6 h): 95.93 ± 8.86^a
Cellular toxicity (cell viability), MTS assay (MB231 (MDA-MB231) cells; MB231, TP4 2.5 μg/mL, 12 h): 87.60 ± 12.28^c
Cellular toxicity (cell viability), MTS assay (MB231 (MDA-MB231) cells; MB231, TP4 2.5 μg/mL, 24 h): 87.01 ± 9.69^c
Cellular toxicity (cell viability), MTS assay (MB231 (MDA-MB231) cells; MB231, TP4 5.0 μg/mL, 3 h): 90.55 ± 10.57^a
Cellular toxicity (cell viability), MTS assay (MB231 (MDA-MB231) cells; MB231, TP4 5.0 μg/mL, 6 h): 82.30 ± 6.40^d
Cellular toxicity (cell viability), MTS assay (MB231 (MDA-MB231) cells; MB231, TP4 5.0 μg/mL, 12 h): 79.00 ± 9.48^d
Cellular toxicity (cell viability), MTS assay (MB231 (MDA-MB231) cells; MB231, TP4 5.0 μg/mL, 24 h): 71.69 ± 6.84^d
Cellular toxicity (cell viability), MTS assay (MB231 (MDA-MB231) cells; MB231, TP4 10.0 μg/mL, 3 h): 75.01 ± 11.29^d
Cellular toxicity (cell viability), MTS assay (MB231 (MDA-MB231) cells; MB231, TP4 10.0 μg/mL, 6 h): 65.28 ± 6.61^d
Cellular toxicity (cell viability), MTS assay (MB231 (MDA-MB231) cells; MB231, TP4 10.0 μg/mL, 12 h): 61.63 ± 11.38^d
Cellular toxicity (cell viability), MTS assay (MB231 (MDA-MB231) cells; MB231, TP4 10.0 μg/mL, 24 h): 57.98 ± 6.62^d
Cellular toxicity (cell viability), MTS assay (MB231 (MDA-MB231) cells; MB231, TP4 15.0 μg/mL, 3 h): 52.48 ± 11.16^d
Cellular toxicity (cell viability), MTS assay (MB231 (MDA-MB231) cells; MB231, TP4 15.0 μg/mL, 6 h): 42.59 ± 10.14^d
Cellular toxicity (cell viability), MTS assay (MB231 (MDA-MB231) cells; MB231, TP4 15.0 μg/mL, 12 h): 38.31 ± 7.26^d
Cellular toxicity (cell viability), MTS assay (MB231 (MDA-MB231) cells; MB231, TP4 15.0 μg/mL, 24 h): 29.78 ± 4.79^d
Cellular toxicity (cell viability), MTS assay (MB231 (MDA-MB231) cells; MB231, TP4 20.0 μg/mL, 3 h): 30.57 ± 4.64^d
Cellular toxicity (cell viability), MTS assay (MB231 (MDA-MB231) cells; MB231, TP4 20.0 μg/mL, 6 h): 26.65 ± 7.16^d
Cellular toxicity (cell viability), MTS assay (MB231 (MDA-MB231) cells; MB231, TP4 20.0 μg/mL, 12 h): 19.31 ± 5.73^d
Cellular toxicity (cell viability), MTS assay (MB231 (MDA-MB231) cells; MB231, TP4 20.0 μg/mL, 24 h): 16.19 ± 4.15^d
viability at 3 h, 2.5 μg/mL ([1]; TP4 2.5 μg/mL, 3 h): 105 ± 6.49%
viability at 6 h, 2.5 μg/mL ([1]; TP4 2.5 μg/mL, 6 h): 98.6 ± 4.42%
viability at 12 h, 2.5 μg/mL ([1]; TP4 2.5 μg/mL, 12 h): 100 ± 4.74%
viability at 24 h, 2.5 μg/mL ([1]; TP4 2.5 μg/mL, 24 h): 97.2 ± 5.62%
viability at 3 h, 5 μg/mL ([1]; TP4 5.0 μg/mL, 3 h): 103 ± 5.88%
viability at 6 h, 5 μg/mL ([1]; TP4 5.0 μg/mL, 6 h): 96.8 ± 3.43%
viability at 12 h, 5 μg/mL ([1]; TP4 5.0 μg/mL, 12 h): 93.8 ± 3.81%
viability at 24 h, 5 μg/mL ([1]; TP4 5.0 μg/mL, 24 h): 92.7 ± 6.58%
viability at 3 h, 10 μg/mL ([1]; TP4 10.0 μg/mL, 3 h): 102 ± 9.49%
viability at 6 h, 10 μg/mL ([1]; TP4 10.0 μg/mL, 6 h): 92.9 ± 2.98%
viability at 12 h, 10 μg/mL ([1]; TP4 10.0 μg/mL, 12 h): 89.6 ± 3.87%
viability at 24 h, 10 μg/mL ([1]; TP4 10.0 μg/mL, 24 h): 86.1 ± 9.39%
viability at 3 h, 15 μg/mL ([1]; TP4 15.0 μg/mL, 3 h): 103 ± 9030%
viability at 6 h, 15 μg/mL ([1]; TP4 15.0 μg/mL, 6 h): 90.8 ± 6.82%
viability at 12 h, 15 μg/mL ([1]; TP4 15.0 μg/mL, 12 h): 85.9 ± 4.24%
viability at 24 h, 15 μg/mL ([1]; TP4 15.0 μg/mL, 24 h): 82.2 ± 11.4%
viability at 3 h, 20 μg/mL ([1]; TP4 20.0 μg/mL, 3 h): 98.6 ± 13%
viability at 6 h, 20 μg/mL ([1]; TP4 20.0 μg/mL, 6 h): 81 ± 12.3%
viability at 12 h, 20 μg/mL ([1]; TP4 20.0 μg/mL, 12 h): 80.5 ± 1.58%
viability at 24 h, 20 μg/mL ([1]; TP4 20.0 μg/mL, 24 h): 72.2 ± 13.5%
